Assay results as given in patent publication US6169076A, “P-Boronophenylalanine complexes with fructose and related carbohydrates and polyols” (Glcosyn Pharmaceuticals, Inc., priority 1999, dated 2001).
Values after ≈ are worked out from the molar mass of the structure shown. Structures can show the parent of a compound that is named as a salt. Values belong to the compound of their own block, whether it stands above or below them.

How the values were obtained:
[1] = Complex formation constants of p-BPA with carbohydrates and polyols, by integration of aryl protons in the 1H NMR spectrum (D2O, pH buffered at 7.4); format: physicochemical; details: for log Keq (complex formation constant, disaccharides) / log Keq (complex formation constant, monosaccharides) / log Keq (complex formation constant, polyols): L-p-BPA, 1H NMR, D2O, pH buffered at 7.4; for difference in binding constants: maltulose, lactulose and fructose compared; for decrease in binding: C-3 hydroxyl unavailable; for decrease in the pKeq values of these complexes: C-6 hydroxyl eliminated from binding, relative to fructose; for binding with l-p-BPA / change in the 1H NMR spectrum of l-p-BPA: in words
From the text: (§1) The ratio of free p-BPA to p-BPA:carbohydrate complex can be determined by integration of the aromatic protons resonances (p-BPA, 7.73 and 7.33 ppm; p-BPA-carbohydrate complex, 7.5 and 7.2 ppm) in the ^1 H NMR spectrum using D2 O buffered to physiological pH as the solvent. A minimum of five measurements for each carbohydrate at various concentrations and p-BPA:carbohydrate ratios were taken, and the equilibrium constant calculated (Table 1 and Table 2). Likewise, complex formation constants for p-BPA and some polyols have been calculated (Table 3).
^a All values were determined for L-p-BPA by integration of aryl
protons in the ^j H NMR spectrum (D2 O, pH buffered at 7.4).
^a All values were determined for L-p-BPA by intergration of aryl
protons in the ^l H NMR spectrum (D2 O, pH buffered at 7.4).
The strong correspondence between the NMR data obtained for the l-p-BPA-fructose complex at physiological pH and one of the complexes (e.g., as observed for p-tolylboronic acid with fructose at pD 11-12) was further investigated by a systematic study of the binding ability of fructose-containing disaccharides (Table 2). […] However, the presence of the added 4-O-glucosyl or galactosyl group had no positive effect on binding either.
While the hydroxyl at C-3 for turanose is eliminated from binding due to the presence of the glucosyl moiety, the C-3 hydroxyl of leucrose is also unavailable for binding due to a likely significant contribution from the conformation that places the glucosyl unit in an equatorial position, resulting in a diaxial orientation between the anomeric C-2 hydroxyl and C-3 hydroxyl axial. Loss in binding ability for leucrose can also be attributed to the fructose unit being locked in the less favored pyranose ring form.

[2] = 0.1 M solution; cited from earlier work
[3] = patients injected with p-BPA solution of this acidity; cited from earlier work
[4] = State of p-BPA in solution at pH 7.4 with strongly complexing or excess carbohydrate/polyol; format: physicochemical
From the text: as §1

[5] = cited from earlier work
[6] = system: melanoma cells; details: in words; cited from earlier work
[7] = solution from current methods, roughly one equivalent of NaCl; cited from earlier work
[8] = system: murine melanoma model; details: systemic administration; cited from earlier work
[9] = intravenous; solution from current methods; cited from earlier work
[10] = Hydration of the freeze-dried solid with warm water and standing at room temperature; format: physicochemical
Method: ^10 B enriched l-p-boronophenylalanine (0.520 g) and d-fructose (0.473 g) was suspended in distilled water (3 mL), and l-p-boronophenylalanine was dissolved by addition of 0.5 M NaOH (5.3 mL) with gentle heating. The pH of this solution is typically between 8.5 and 9.0. […] The solution is removed from the resin, and any l-p-boronophenylalanine that is suspended can be redissolved with gentle warming of the solution. The room temperature solution was then filtered through a 0.2μ filter and then freeze-dried to give sodium l-p-boronophenylalanine-d-fructose complex (0.934 g). […] M.p. 90-93° C.

log Keq (complex formation constant, disaccharides) [1]: 3.0
Compound: OC[C@H]1O[C@@H](O[C@@H]2[C@@H](CO)OC(O)(CO)[C@H]2O)[C@H](O)[C@@H](O)[C@H]1O (mixture of isomers) [Lactulose]
difference in binding constants [1]: lack of appreciable difference in binding constants

log Keq (complex formation constant, monosaccharides) [1]: < 0
Compound: O=CC[C@@H](O)[C@H](O)[C@H](O)CO [2-Deoxyglucose]

log Keq (complex formation constant, polyols) [1]: 1.7
Compound: OC[C@@H](O)[C@@H](O)[C@@H](O)CO [Adonitol]

log Keq (complex formation constant, monosaccharides) [1]: 3.2
Compound: O=C(CO)[C@@H](O)[C@H](O)[C@H](O)CO [Fructose]
difference in binding constants [1]: lack of appreciable difference in binding constants

log Keq (complex formation constant, monosaccharides) [1]: 1.6
Compound: O=C[C@H](O)[C@@H](O)[C@@H](O)[C@H](O)CO [Galactose]

log Keq (complex formation constant, monosaccharides) [1]: 1.4
Compound: O=C[C@H](O)[C@@H](O)[C@H](O)[C@H](O)CO [Glucose]

decrease in binding [1]: 1.5 pKeq | log Keq (complex formation constant, disaccharides) [1]: 1.7
Compound: OC[C@H]1O[C@H](O[C@@H]2COC(O)(CO)[C@@H](O)[C@@H]2O)[C@H](O)[C@@H](O)[C@@H]1O (some centres unmarked) [Leucrose]

Compound: OC[C@@H](O)[C@@H](O)[C@H](O)[C@H](O)CO [Mannitol]
log Keq (complex formation constant, polyols) [1]: 2.7

log Keq (complex formation constant, monosaccharides) [1]: 1.3
Compound: O=C[C@@H](O)[C@@H](O)[C@H](O)[C@H](O)CO [Mannose]

decrease in the pKeq values of these complexes [1]: 0.5 pKeq | log Keq (complex formation constant, disaccharides) [1]: 2.6
Compound: OC[C@H]1O[C@H](OC[C@H]2OC(O)(CO)[C@@H](O)[C@@H]2O)[C@H](O)[C@@H](O)[C@@H]1O (some centres unmarked) [Palatinose]

log Keq (complex formation constant, monosaccharides) [1]: 1.8
Compound: O=C[C@H](O)[C@H](O)[C@H](O)CO [Ribose]

Compound: OC[C@@H](O)[C@@H](O)[C@H](O)[C@@H](O)CO [Sorbitol]
log Keq (complex formation constant, polyols) [1]: 3.2

decrease in the pKeq values of these complexes [1]: 0.5 pKeq | log Keq (complex formation constant, monosaccharides) [1]: 2.7
Compound: O=C(CO)[C@H](O)[C@@H](O)[C@H](O)CO [Sorbose]

decrease in binding [1]: 1.5 pKeq | log Keq (complex formation constant, disaccharides) [1]: 1.6
Compound: O=C(CO)[C@@H](O[C@H]1O[C@H](CO)[C@@H](O)[C@H](O)[C@H]1O)[C@H](O)[C@H](O)CO [Turanose]

log Keq (complex formation constant, polyols) [1]: 2.5
Compound: OC[C@@H](O)[C@H](O)[C@@H](O)CO [Xylitol]

Compound: NC(Cc1ccc(B(O)O)cc1)C(=O)O (centres unmarked) [hydrochloric acid salts of p-BPA]
pH value of solution [2]: approximately 1.5 | pain on injection [3]: causes pain

binding with l-p-BPA [1]: complete lack of binding | change in the 1H NMR spectrum of l-p-BPA [1]: no change
Compound: CO[C@H]1O[C@H](CO)[C@@H](O)[C@H](O)[C@H]1O [methyl-α-glucopyranoside]

binding with l-p-BPA [1]: complete lack of binding | change in the 1H NMR spectrum of l-p-BPA [1]: no change
Compound: CO[C@@H]1O[C@H](CO)[C@H](O)[C@H](O)[C@H]1O [methyl-β-galactopyranoside]

p-BPA remaining in solution ([4]; fructose, sorbose, or large excess of another carbohydrate or polyol): all of the p-BPA remains in solution | p-BPA present as its sodium carboxylate ([4]; remainder as free acid): approximately 90%
Compound: N[C@@H](Cc1ccc(B(O)O)cc1)C(=O)O [p-BPA, p-Boronophenylalanine]
water solubility at physiological pH ([5]; pH 7.4, in words): poor water solubility | solubility in water ([5]; water): 1.6 mg/mL (≈ 7.66 mM) | uptake by melanoma cells [6]: selectively taken up by melanoma cells

Compound: [NH3+]C(Cc1ccc([B-]23OC[C@H]4O[C@@](CO)(O2)[C@@H](O3)[C@@H]4O)cc1)C(=O)O (some centres unmarked) [p-BPA-fructose complex]
osmotic property of solution [7]: greatly exceeding its iso-osmotic point with blood | 10B uptake [8]: increases the ^10 B uptake | toxicity [9]: toxicity observed

stability of the hydrated solution (remains dissolved) ([10]; prolonged standing (i.e., 48 hrs) at room temperature): remains completely dissolved | solubility ([10]; warm water, 60° C.): ~100 mg/mL
Compound: [NH3+][C@@H](Cc1ccc([B-]23OC[C@H]4O[C@@](CO)(O2)[C@@H](O3)[C@@H]4O)cc1)C(=O)O [sodium l-p-boronophenylalanine-d-fructose complex]

binding with l-p-BPA [1]: complete lack of binding | change in the 1H NMR spectrum of l-p-BPA [1]: no change
Compound: OC[C@H]1O[C@@](CO)(O[C@H]2O[C@H](CO)[C@@H](O)[C@H](O)[C@H]2O)[C@@H](O)[C@@H]1O [sucrose]

log Keq (complex formation constant, disaccharides) [1]: 3.1
Compound: Maltulose
difference in binding constants [1]: lack of appreciable difference in binding constants
